Laboratory results as given in US20090060875A1, “HCV Vaccines for Chronic HCV Patients” (INTERCELL AG, priority 2004, published 2009).

Columns and labels:
[1] = standard therapy, background; cited from earlier work
[2] = test system: CD4+ Helper-T-cells; assay: T-cell proliferation assay ([3H]-thymidine) in phase 2 study of chronic HCV patients; type: in vivo, human; settings: vaccinations at month 0-5, stimulation indices, median of 12 patients per group (FIG. 1), listed as poly-L-Arginine alone
Source text: (§1) In the present clinical study, each group consisted of 12 subjects, positive for HLA-A2. Subjects received 6 vaccinations in monthly intervals (at visits 3 to 8). Blood for immunological analyses was drawn prior vaccination and at visits 6 to 8, one month after last vaccination (visit 9), 3 months after last vaccination (visit 10) and 6 months after last vaccination (visit 11). For immunological monitoring of clinical trials, state-of-the-art T cell assays to determine immunological endpoints under GLP/GCP compliance were applied: Interferon-gamma ELIspot Assay, T cell Proliferation Assay, HLA-tetramer/FACS assay. These assays allow reliable measurements of epitope-specific T cell responses induced by the therapeutic HCV vaccine IC41. The vaccine-induced T cell immune responses serve as surrogate parameters of efficacy (Keilholz et al. 2002).
As primary endpoint T-cell immunogenicity was determined by a T-cell proliferation assay. […] Proliferation of cells can be measured by a variety of means; among the most sensitive approaches ranks incorporation of radioactively labeled thymidine into DNA synthesized prior cell division. […] Cells are then harvested onto a filter plate: medium containing free radioactivity is washed away, whereas DNA sticks to the filter. Incorporated radioactivity can be quantified by means of a beta-scintillation counter determining counts-per-minute (cpm). […]

[3] = test system: interferon gamma secreting T-cells (CD4+ Helper- and CD8+ cytotoxic T-cells); assay: Interferon-gamma ELIspot assay in phase 2 study of chronic HCV patients; type: in vivo, human; settings: chronic HCV patients (FIG. 2)
Source text: as §1
As secondary endpoints T-cell immunogenicity was determined by interferon gamma ELIspot. ELIspot allows quantification of peptide-specific, functional (i.e. cytokine-secreting) T cells in biological samples like human blood. The basis of the assay is that, T cells upon stimulation with a peptide specifically recognized by the T cell receptor react by secretion of cytokines like IFN-γ. […]
The filter-wells of this plate are coated with a Mab specific for IFN-γ. […] Spots can be counted using automated plate readers. […]

| Compound | Side effects [1] | CD4+ Helper-T-cell proliferation (induction of significant proliferative response) [2] | Induction of interferon gamma secreting T-cells (type I T-cell response) [3] |
| --- | --- | --- | --- |
| NC(=O)c1ncn([C@@H]2O[C@H](CO)[C@@H](O)[C@H]2O)n1 [Ribavirin, ribavirin] | teratogenic, mutagenic and carcinogenic potency | – | – |
| Poly-L-Arginine | – | not and neither peptides alone nor poly-L-Arginine alone have this ability | cannot induce any response |
